Laboratory results from ChEMBL document CHEMBL5260813, “An overview on the recent developments of 1,2,4-triazine derivatives as anticancer compounds” (Eur J Med Chem, 2017).
Converted amounts (≈) assume the structure as drawn.

Columns and labels:
[1] = tested on: SCC-7; assay: Anticlonogenic activity against mouse SCC-7 cells assessed as inhibition of colony formation under hypoxic condition by clonogenic survival assay; assay type: functional
[2] = tested on: HT-29; assay: Antiproliferative activity against human HT-29 cells assessed as inhibition of cell growth under hypoxia condition by SRB assay; assay type: functional, cell-based
[3] = tested on: HT-29; assay: Antiproliferative activity against human HT-29 cells assessed as inhibition of cell growth under normoxia condition by SRB assay; assay type: functional, cell-based
[4] = tested on: SCC-7; assay: Anticlonogenic activity against mouse SCC-7 cells assessed as inhibition of colony formation under aerobic condition by clonogenic survival assay; assay type: functional
[5] = target: Vascular endothelial growth factor receptor 2 (Homo sapiens, UniProt P35968); assay: Inhibition of VEGFR-2 (unknown origin)
Sequence of Vascular endothelial growth factor receptor 2 (P35968 whole entry): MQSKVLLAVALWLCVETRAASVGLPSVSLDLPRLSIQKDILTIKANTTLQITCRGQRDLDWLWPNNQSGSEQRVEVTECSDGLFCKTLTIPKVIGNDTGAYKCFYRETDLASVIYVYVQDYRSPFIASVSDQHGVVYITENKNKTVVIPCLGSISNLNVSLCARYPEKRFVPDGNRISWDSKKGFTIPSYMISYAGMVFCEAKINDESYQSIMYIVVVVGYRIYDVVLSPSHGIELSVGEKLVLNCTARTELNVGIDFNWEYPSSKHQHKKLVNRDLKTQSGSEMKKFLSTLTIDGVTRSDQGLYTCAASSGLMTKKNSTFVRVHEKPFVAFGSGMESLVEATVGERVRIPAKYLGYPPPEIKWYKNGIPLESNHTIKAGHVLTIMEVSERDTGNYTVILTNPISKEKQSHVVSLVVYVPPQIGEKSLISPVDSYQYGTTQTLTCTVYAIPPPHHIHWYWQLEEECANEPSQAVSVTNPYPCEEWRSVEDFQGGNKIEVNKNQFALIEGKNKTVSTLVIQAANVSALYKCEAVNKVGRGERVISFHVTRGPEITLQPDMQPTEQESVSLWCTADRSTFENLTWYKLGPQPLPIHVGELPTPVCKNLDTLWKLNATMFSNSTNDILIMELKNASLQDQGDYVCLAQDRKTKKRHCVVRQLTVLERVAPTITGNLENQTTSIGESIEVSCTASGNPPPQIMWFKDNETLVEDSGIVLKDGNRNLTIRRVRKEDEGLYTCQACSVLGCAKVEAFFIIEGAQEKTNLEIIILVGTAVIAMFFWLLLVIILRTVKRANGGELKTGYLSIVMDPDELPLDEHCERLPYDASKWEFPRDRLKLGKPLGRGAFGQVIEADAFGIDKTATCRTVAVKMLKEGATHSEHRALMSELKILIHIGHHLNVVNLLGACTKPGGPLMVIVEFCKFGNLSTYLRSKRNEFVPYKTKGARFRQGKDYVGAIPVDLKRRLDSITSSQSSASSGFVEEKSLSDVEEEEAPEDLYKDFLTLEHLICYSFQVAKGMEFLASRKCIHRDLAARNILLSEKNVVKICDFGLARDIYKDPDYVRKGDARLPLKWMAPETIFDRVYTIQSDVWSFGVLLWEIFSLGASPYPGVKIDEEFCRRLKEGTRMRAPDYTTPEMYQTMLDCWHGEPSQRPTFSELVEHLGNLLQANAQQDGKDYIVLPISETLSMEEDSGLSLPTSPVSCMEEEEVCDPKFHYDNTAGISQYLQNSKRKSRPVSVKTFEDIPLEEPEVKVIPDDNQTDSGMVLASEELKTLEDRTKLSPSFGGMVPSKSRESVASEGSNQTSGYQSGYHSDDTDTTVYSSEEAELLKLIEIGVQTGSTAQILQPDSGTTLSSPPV

[6] = target: T1, Tyrosine-protein kinase SYK (Homo sapiens, UniProt P43405); assay: Inhibition of human SYK using 5-Fluo-Ahx-GAPDYENLQELNKK-Amid as substrate in presence of ATP by microfluidic mobility shift assay
[7] = target: T1, Tyrosine-protein kinase SYK; assay: Inhibition of SYK in human Ramos cells assessed as reduction in anti IgM-induced phosphorylation of BLNK by flow cytometry assay; assay type: cell-based
[8] = tested on: HT-29; assay: Antiproliferative activity against human HT-29 cells assessed as inhibition of cell growth by SRB assay; assay type: functional, cell-based
[9] = tested on: HT-29; assay: Potency index, ratio of tirapazamine IC50 to compound IC50 for antiproliferative activity against human HT-29 cells; assay type: functional
[10] = target: Cyclin-dependent kinase 2/cyclin E1 (Homo sapiens, UniProt P24941); assay: Inhibition of CDK2/cyclin E1 (unknown origin) expressed in Sf9 cells
[11] = target: Tyrosine-protein kinase JAK2 (Homo sapiens, UniProt O60674); assay: Inhibition of JAK2 (unknown origin)
Sequence of Tyrosine-protein kinase JAK2 (O60674 whole entry): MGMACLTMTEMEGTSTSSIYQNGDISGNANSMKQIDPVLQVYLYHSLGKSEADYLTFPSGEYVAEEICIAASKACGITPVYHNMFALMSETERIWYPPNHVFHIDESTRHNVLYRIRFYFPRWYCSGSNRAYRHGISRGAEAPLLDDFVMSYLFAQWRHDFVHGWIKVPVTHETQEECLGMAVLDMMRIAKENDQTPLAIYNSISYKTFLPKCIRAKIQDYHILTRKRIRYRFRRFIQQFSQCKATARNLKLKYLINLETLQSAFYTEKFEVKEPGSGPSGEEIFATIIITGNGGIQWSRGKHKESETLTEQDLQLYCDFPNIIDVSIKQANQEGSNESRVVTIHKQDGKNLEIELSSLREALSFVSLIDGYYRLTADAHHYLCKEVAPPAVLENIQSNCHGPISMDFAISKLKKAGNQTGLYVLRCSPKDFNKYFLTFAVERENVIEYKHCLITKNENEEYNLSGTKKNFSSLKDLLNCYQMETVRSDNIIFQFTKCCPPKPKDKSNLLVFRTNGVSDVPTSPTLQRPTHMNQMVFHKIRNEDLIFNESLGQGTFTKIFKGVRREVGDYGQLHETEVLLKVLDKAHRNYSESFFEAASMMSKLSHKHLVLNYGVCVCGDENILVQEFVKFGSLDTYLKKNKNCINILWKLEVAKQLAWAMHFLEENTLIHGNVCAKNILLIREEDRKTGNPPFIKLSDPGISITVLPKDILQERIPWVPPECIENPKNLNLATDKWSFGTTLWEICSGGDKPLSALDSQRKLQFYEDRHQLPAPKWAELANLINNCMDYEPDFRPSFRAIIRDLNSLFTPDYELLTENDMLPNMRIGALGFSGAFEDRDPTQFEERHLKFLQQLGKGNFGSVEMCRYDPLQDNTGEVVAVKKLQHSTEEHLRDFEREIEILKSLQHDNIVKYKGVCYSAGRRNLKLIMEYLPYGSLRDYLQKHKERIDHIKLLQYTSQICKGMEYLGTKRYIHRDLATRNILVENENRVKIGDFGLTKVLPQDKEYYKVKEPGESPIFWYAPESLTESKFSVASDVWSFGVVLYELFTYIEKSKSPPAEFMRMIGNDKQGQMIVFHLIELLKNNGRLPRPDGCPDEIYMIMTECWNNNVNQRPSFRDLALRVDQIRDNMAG

[12] = target: T2, Tyrosine-protein kinase JAK3 (Homo sapiens, UniProt P52333); assay: Inhibition of JAK3 (unknown origin)
T2 sequence (P52333 whole entry): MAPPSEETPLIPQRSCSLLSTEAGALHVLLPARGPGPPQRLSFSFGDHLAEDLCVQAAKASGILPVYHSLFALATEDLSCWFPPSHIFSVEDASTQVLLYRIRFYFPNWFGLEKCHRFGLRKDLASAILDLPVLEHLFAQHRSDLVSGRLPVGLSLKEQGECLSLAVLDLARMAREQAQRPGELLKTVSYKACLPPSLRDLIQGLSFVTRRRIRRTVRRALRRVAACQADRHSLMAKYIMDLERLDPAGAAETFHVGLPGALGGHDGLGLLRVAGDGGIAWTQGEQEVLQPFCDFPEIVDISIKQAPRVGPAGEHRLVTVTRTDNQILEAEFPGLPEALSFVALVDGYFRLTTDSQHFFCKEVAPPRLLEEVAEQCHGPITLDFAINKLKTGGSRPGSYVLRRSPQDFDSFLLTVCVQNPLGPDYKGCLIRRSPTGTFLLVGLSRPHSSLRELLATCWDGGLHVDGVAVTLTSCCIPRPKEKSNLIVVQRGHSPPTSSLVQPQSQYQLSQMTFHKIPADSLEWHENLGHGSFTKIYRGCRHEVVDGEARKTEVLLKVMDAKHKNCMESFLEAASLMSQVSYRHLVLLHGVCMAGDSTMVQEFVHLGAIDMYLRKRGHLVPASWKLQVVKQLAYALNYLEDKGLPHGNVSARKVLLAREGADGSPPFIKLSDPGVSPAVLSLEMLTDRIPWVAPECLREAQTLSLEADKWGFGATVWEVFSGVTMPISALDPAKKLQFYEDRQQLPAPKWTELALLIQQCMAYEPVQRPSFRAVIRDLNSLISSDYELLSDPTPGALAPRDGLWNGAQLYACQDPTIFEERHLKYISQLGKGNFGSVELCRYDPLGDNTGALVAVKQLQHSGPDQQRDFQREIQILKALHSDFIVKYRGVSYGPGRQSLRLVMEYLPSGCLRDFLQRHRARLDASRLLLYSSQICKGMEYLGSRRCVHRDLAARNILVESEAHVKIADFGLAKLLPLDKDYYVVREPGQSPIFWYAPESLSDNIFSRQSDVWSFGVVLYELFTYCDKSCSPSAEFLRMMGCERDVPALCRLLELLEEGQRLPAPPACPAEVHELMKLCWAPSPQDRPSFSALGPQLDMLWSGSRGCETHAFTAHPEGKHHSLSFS

[13] = tested on: HCT-116; assay: Antiproliferative activity against human HCT-116 cells assessed as inhibition of cell growth; assay type: functional, cell-based
[14] = tested on: MCF7; assay: Antiproliferative activity against human MCF7 cells assessed as inhibition of cell growth; assay type: functional, cell-based

Row | Compound | C10 [1] [µM] | IC50 [2] [nM] | IC50 [3] [nM] | C10 [4] [µM] | also measured
1 | O=C(NCCNCCNc1n[n+]([O-])c2ccccc2[n+]1[O-])c1cccc2cc3ccccc3nc12 | 0.18 | 16 | 600 | 6.4 | –
2 | Cc1cccc2nc3cccc(C(=O)NCCCN(C)CCCNc4n[n+]([O-])c5ccccc5[n+]4[O-])c3nc12 | 0.18 | 16 | 600 | 6.4 | –
3 | CN(CCCNC(=O)c1cccc2ccc(-c3ccncc3)nc12)CCCNc1n[n+]([O-])c2ccccc2[n+]1[O-] | 0.18 | 16 | 600 | 6.4 | –
4 | O=C(NCCOCCNc1n[n+]([O-])c2ccccc2[n+]1[O-])c1cccc2cc3ccccc3nc12 | 0.18 | 16 | 600 | 6.4 | –
5 | CN(CCNC(=O)c1cccc2cc3ccccc3nc12)CCNc1n[n+]([O-])c2ccccc2[n+]1[O-] | 0.18 | 16 | 600 | 6.4 | –
6 | CN(CCCNC(=O)c1cccc2cccnc12)CCCNc1n[n+]([O-])c2ccccc2[n+]1[O-] | 0.18 | 16 | 600 | 6.4 | –
7 | CN(CCCNC(=O)c1cccc2nc3ccccc3nc12)CCCNc1n[n+]([O-])c2ccccc2[n+]1[O-] | 0.18 | 16 | 600 | 6.4 | –
8 | Cc1ccc(Nc2ncnn3c(C)ccc23)cc1O | – | – | – | – | IC50 [5]: 29400 nM
9 | NC(=O)c1nnc(N[C@@H]2CCCC[C@@H]2N)nc1Nc1cccc2[nH]ccc12 | – | – | – | – | IC50 [6]: 0.8 nM
10 | Cc1cccc2cc3cccc(C(=O)NCCCN(C)CCCNc4n[n+]([O-])c5ccccc5[n+]4[O-])c3nc12 | 0.18 | 16 | 600 | 6.4 | –
11 | CN(CCCNC(=O)c1cccc2cc3ccccc3nc12)CCCNc1n[n+]([O-])c2ccccc2[n+]1[O-] | 0.18 | 16 | 600 | 6.4 | –
12 | NC(=O)c1nnc(N[C@@H]2CCCC[C@@H]2N)nc1Nc1cccc2c(Cl)c[nH]c12 | – | – | – | – | IC50 [6]: 0.8 nM; IC50 [7]: 14 nM
13 | NC(=O)c1nnc(N[C@@H]2CCCC[C@@H]2N)nc1Nc1cc(F)cc2cc[nH]c12 | – | – | – | – | IC50 [6]: 0.8 nM; IC50 [7]: 14 nM
14 | Cc1c[nH]c2c(Nc3nc(N[C@@H]4CCCC[C@@H]4N)nnc3C(N)=O)cccc12 | – | – | – | – | IC50 [6]: 0.8 nM; IC50 [7]: 14 nM
15 | Cn1ncc2c(Nc3nc(N[C@@H]4CCCC[C@@H]4N)nnc3C(N)=O)cccc21 | – | – | – | – | IC50 [6]: 0.8 nM; IC50 [7]: 14 nM
16 | NC(=O)c1nnc(N[C@@H]2CCCC[C@@H]2N)nc1Nc1cccc2[nH]ncc12 | – | – | – | – | IC50 [6]: 0.8 nM; IC50 [7]: 14 nM
17 | Cc1c[nH]c2c(Nc3nc(N[C@@H]4CCCC[C@@H]4N)nnc3C(N)=O)cc(F)cc12 | – | – | – | – | IC50 [7]: 14 nM
18 | O=C(NCCCNCCCNc1n[n+]([O-])c2ccccc2[n+]1[O-])c1cccc2cc3ccccc3nc12 | 0.18 | 16 | 600 | 6.4 | –
19 | Nc1nc2ccccc2[n+]([O-])n1 | – | – | – | – | IC50 [8]: > 500 nM; Ratio IC50 [9]: 2
20 | Oc1ccc(-n2nc(-c3cc(O)c(O)c(O)c3)c3nc(-c4ccc(Cl)cc4)nnc32)cc1 | – | – | – | – | IC50 [10]: > 20000 nM
21 | Oc1cc(-c2nn(-c3ccc(Cl)cc3)c3nnc(-c4ccc(Cl)cc4)nc23)cc(O)c1O | – | – | – | – | IC50 [10]: > 20000 nM
22 | Oc1ccc(-n2nc(-c3cc(O)c(O)c(O)c3)c3nc(-c4ccccc4)nnc32)cc1 | – | – | – | – | IC50 [10]: 14100 nM
23 | CC(C)C(Nc1cnnc(-c2c[nH]c3ncc(F)cc23)n1)C(=O)NCC(C)(C)C (centres undefined) | – | – | – | – | IC50 [11]: ≤ 10 nM; IC50 [12]: ≤ 10 nM
24 | COc1cc(Cc2nc(-c3ccccc3)nn3cnnc23)cc(OC)c1OC | – | – | – | – | IC50 [13]: 0.74 µg/mL (≈ 1.96 µM); IC50 [14]: 0.74 µg/mL (≈ 1.96 µM)
25 | N#CCNc1nc2ccccc2[n+]([O-])n1 | – | – | – | – | IC50 [8]: > 300 nM; Ratio IC50 [9]: 1.9
26 | Oc1ccccc1-n1nc(-c2cc(O)c(O)c(O)c2)c2nc(-c3ccc(Cl)cc3)nnc21 | – | – | – | – | IC50 [10]: > 20000 nM
27 | CC(C)C(Nc1cnnc(-c2c[nH]c3ncc(Cl)cc23)n1)C(=O)NCC(C)(C)C (centres undefined) | – | – | – | – | IC50 [11]: ≤ 10 nM; IC50 [12]: ≤ 10 nM
28 | CC(C)(C)CNC(=O)C(C)(C)Nc1cnnc(-c2c[nH]c3ncc(F)cc23)n1 | – | – | – | – | IC50 [11]: ≤ 10 nM; IC50 [12]: ≤ 10 nM
